Some test systems named below: A498; A549; ACHN; CCRF-CEM; COLO 205; HCC 2998; HL-60; Hs-578T; LOX IMVI; MCF7; MDA-MB-435; NCI-H226; OVCAR-4; OVCAR-5; SF-268; SN12C; SW-620; U-251; UACC-62; UO-31.
What all share (assay): growth of human tumour cells (NCI), 48 h

The structures appear in SMILES notation.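 Test compounds were applied to cells in 96-well plates for 48 hours at 5 doses. GI50 marks 50% less growth.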 Activity calls are given as the source filed them. Cut-off read from the data, not from the text of the source: active = GI50 up to about 1.1 µM and inactive = higher.

Regarding `Nc1nc(Cl)cc(NCC2(O)CCCC2)n1`, the GI50 in the assay with A498, in the assay with A549, with ACHN, in the assay on CCRF-CEM, in the assay with COLO 205 and in the assay with HCC 2998 was > 100 µM (inactive) throughout. The GI50 in the assay with HL-60, in the assay with Hs-578T, with LOX IMVI, in the assay on MCF7, in the assay with MDA-MB-435 and in the assay with NCI-H226 was > 100 µM (inactive) in each case. Also, the GI50 in the assay with OVCAR-4, in the assay with OVCAR-5, in the assay with SF-268, in the assay with SN12C, with SW-620 and with U-251 was > 100 µM (inactive) in each case. Also, the GI50 with UACC-62 is > 100 µM (inactive); in the assay on UO-31, 78.9 µM (inactive).

As to `COc1cc(-c2c(C#N)c(N)c(C#N)c3c2COc2ccccc2-3)cc(OC)c1OC`, the GI50 in the assay on A498 was 39.3 µM (inactive); in the assay with A549, > 100 µM (inactive); in the assay with ACHN, 27.8 µM (inactive); in the assay with CCRF-CEM, > 100 µM (inactive); with COLO 205, > 100 µM (inactive); with HCC 2998, 16.6 µM (inactive). For the same compound, the GI50 in the assay on HL-60 was > 100 µM (inactive); in the assay with Hs-578T, 16.4 µM (inactive); in the assay on LOX IMVI, 39.2 µM (inactive); in the assay with MCF7 it was > 100 µM (inactive); in the assay on MDA-MB-435, > 100 µM (inactive); with NCI-H226, 6.92 µM (inactive). The GI50 with OVCAR-4 is > 22.8 µM (inactive); in the assay on OVCAR-5 it was > 100 µM (inactive); in the assay on SF-268 it was 11.5 µM (inactive); with SN12C, 25.9 µM (inactive); with SW-620, > 100 µM (inactive); with U-251 it was 12.4 µM (inactive). For the same compound, the GI50 in the assay on UACC-62 was 30.2 µM (inactive); in the assay on UO-31 it was > 35.8 µM (inactive).

With `COc1ccc(/C(=N/OCCCC(=O)O)c2cccs2)cc1`, the GI50 in the assay with A498, in the assay on A549, in the assay on ACHN, with CCRF-CEM, in the assay with COLO 205 and in the assay with HCC 2998 was > 100 µM (inactive) in each case. The GI50 in the assay on HL-60, with Hs-578T, in the assay on LOX IMVI, with MCF7, in the assay with MDA-MB-435 and in the assay on NCI-H226 was > 100 µM (inactive) throughout. Further, the GI50 in the assay with OVCAR-4, in the assay with OVCAR-5, with SF-268, with SN12C, with SW-620 and in the assay on U-251 was > 100 µM (inactive) throughout. The GI50 with UACC-62 and in the assay on UO-31 was > 100 µM (inactive) each time.

As to `O=Cc1cc2c(s1)C(=O)c1sccc1C2=O`, the GI50 with A498 was 1.37 µM (inactive); in the assay with A549, 0.813 µM (active); with ACHN it was 0.585 µM (active); in the assay with CCRF-CEM, 0.476 µM (active); in the assay with COLO 205, 2.21 µM (inactive); in the assay on HCC 2998 it was 1.56 µM (inactive). Further, the GI50 in the assay on HL-60 is 0.863 µM (active); in the assay with Hs-578T, 0.231 µM (active); in the assay with LOX IMVI, 0.0376 µM (active); with MCF7, 0.564 µM (active); with MDA-MB-435, 0.0187 µM (active); in the assay on NCI-H226, 1.79 µM (inactive). Moreover, the GI50 in the assay with OVCAR-4 was 0.22 µM (active); with OVCAR-5, 0.865 µM (active); in the assay with SF-268, 0.247 µM (active); in the assay on SN12C it was 0.35 µM (active); with SW-620 it was 0.257 µM (active); in the assay on U-251, 0.314 µM (active). Moreover, the GI50 was 0.248 µM (active) in the assay with UACC-62 and 0.411 µM (active) with UO-31.

Consider `O=S1(=O)c2ccccc2N(c2ccccc2)c2nnnn21`, for which the GI50 in the assay with A498 was 23.6 µM (inactive); with A549 it was 33.4 µM (inactive); in the assay with ACHN it was 29.4 µM (inactive); in the assay with CCRF-CEM it was 3.86 µM (inactive); with COLO 205 it was 22.5 µM (inactive); in the assay with HCC 2998 it was 17.7 µM (inactive). For the same compound, the GI50 with HL-60 was 11.4 µM (inactive); in the assay with Hs-578T, 56.6 µM (inactive); in the assay with LOX IMVI it was 16.7 µM (inactive); in the assay on MCF7, 36.6 µM (inactive); with MDA-MB-435 it was 29.4 µM (inactive); in the assay with NCI-H226, 36.1 µM (inactive). Besides, the GI50 in the assay with OVCAR-4 was 16.7 µM (inactive); in the assay on OVCAR-5, 33.3 µM (inactive); in the assay with SF-268, 34.7 µM (inactive); in the assay on SN12C it was 19.1 µM (inactive); in the assay on SW-620, 22.3 µM (inactive); in the assay with U-251, 32.7 µM (inactive). The GI50 with UACC-62 is 15.7 µM (inactive); with UO-31, 39.5 µM (inactive).

`Cc1sc2ncnc(NCCc3ccccc3)c2c1C`: the GI50 was 11.1 µM (inactive) in the assay with A498; 14.7 µM (inactive) with A549; 12.4 µM (inactive) with ACHN; 13 µM (inactive) with CCRF-CEM; 11 µM (inactive) in the assay with COLO 205; 15.1 µM (inactive) with HCC 2998. Besides, the GI50 with HL-60 was 9.02 µM (inactive); in the assay with Hs-578T it was 20.7 µM (inactive); in the assay with LOX IMVI it was 4.82 µM (inactive); in the assay with MCF7 it was 12.5 µM (inactive); in the assay with MDA-MB-435 it was 13.7 µM (inactive); in the assay with NCI-H226 it was 11.6 µM (inactive). Further, the GI50 in the assay with OVCAR-4 was 13.6 µM (inactive); in the assay on OVCAR-5 it was 15.4 µM (inactive); with SF-268, 21.8 µM (inactive); with SN12C, 10.6 µM (inactive); in the assay on SW-620, 25.5 µM (inactive); in the assay with U-251, 11.6 µM (inactive). For the same compound, the GI50 with UACC-62 was 11.9 µM (inactive); with UO-31, 15.6 µM (inactive).

Take `Cc1cc2c(c(/C=N/c3ccc([N+](=O)[O-])cc3)c1)OC1(C=C2)Oc2ccccc2C(=O)N1C` (stereo not given): the GI50 in the assay with A498 was 16.8 µM (inactive); in the assay on A549 it was 28.2 µM (inactive); in the assay on ACHN, 14.8 µM (inactive); with CCRF-CEM it was 12.2 µM (inactive); with COLO 205, 20 µM (inactive); with HCC 2998, 19.8 µM (inactive). The GI50 in the assay on HL-60 was 23.2 µM (inactive); in the assay on Hs-578T, 27.2 µM (inactive); in the assay with LOX IMVI, 12.8 µM (inactive); with MCF7, 17.6 µM (inactive); in the assay with MDA-MB-435, 31.2 µM (inactive); with NCI-H226, 16 µM (inactive). For the same compound, the GI50 in the assay with OVCAR-4 is 22.2 µM (inactive); in the assay with OVCAR-5 it was 28.6 µM (inactive); in the assay on SF-268 it was 18.7 µM (inactive); in the assay with SN12C it was 20.5 µM (inactive); in the assay with SW-620, 29.1 µM (inactive); in the assay on U-251, 21.7 µM (inactive). Moreover, the GI50 with UACC-62 is 17.2 µM (inactive); in the assay with UO-31 it was 13.5 µM (inactive).

These data come from ChEMBL document CHEMBL1201862, “PubChem BioAssay data set” (2004).
